This note sets out measurements from patent publication EP0391644B1, “Aryl-substituted rhodanine derivatives” (ELI LILLY AND COMPANY, priority 1989, dated 1990).

For assay [1], the system named is ischemia-induced brain damage in the hippocampal CA1 region. Kind of assay: Stroke model in rats. In kind it is in vivo, Male Wistar rats. Particulars: mean ± standard error, scale 0 = no damage to 3 = severe damage of CA1 layer. From the text: Strokes were produced in rats by occluding the four arteries that supply blood to the brain according to the following procedure. Male Wistar rats were anesthetized with Metofane and placed into a stereotaxic instrument. A longitudinal incision was made on the dorsal surface of the neck. The neck muscles were reflected to expose the dorsal surface of the spinal column. The two vertebral arteries were exposed where they pass through the first cervical vertebra. Both arteries were permanently occluded by the application of electrocautery. After coagulation of the vertebral arteries, the rat was removed from the stereotaxic instrument and the surgical wound was sutured. Two longitudinal incisions were then made on the ventral surface of the neck. The two common carotid arteries were exposed and dissected free from surrounding nerves and connective tissue. An atraumatic clasp, fabricated mainly from silicon rubber tubing, was placed around each carotid artery in a manner such that the vessel was not traumatized or occluded. The surgical wounds were then closed. The atraumatic clasps were designed in such a manner that they could be tightened to occlude the carotid arteries by pulling on a small silastic thread that was allowed to protrude from the wound. Circulation to the brain through the carotids could be restored by relieving the tension on the silastic threads. After the surgery, the rats were allowed to recover for 24 hours.
On the day of testing, compounds were suspended in 2% acacia and were administered orally at various times before stroke induction. Strokes (cerebral ischemia) were induced by tightening the clasps around the carotids for a period of 30 minutes. During this time, rats in which strokes had successfully been produced lost the righting reflex and became unresponsive to stimuli. After 30 minutes of ischemia, tension on the clasps was removed and blood flow to the brain restored. Rats were again treated with compounds on the morning after the stroke. On the third day after the stroke the animals received an overdose of barbituate anesthetic, and the brain was perfused in situ with 10% neutral, buffered formalin. After perfusion with amounts of formalin adequate to fix the brain, the brains were removed and stored in 10% formalin until histological sections could be prepared.
One of the areas of the brain that is most susceptible to ischemia induced damage both in the rat and the human is the CA1 pyramidal cell layer of the hippocampus. In animals that remain unresponsive for the 30 minute period of ischemia, the CA1 pyramidal cell layer is completely destroyed. This layer of cells was examined microscopically in histological sections prepared from the hippocampus. Brain damage was rated according to the following scale: 0 = no damage, completely intact cell layer 1 = mild damage, one-third of CA1 layer dead 2 = moderate damage, two-thirds of CA1 layer dead 3 = severe damage, complete destruction of CA1 layer
Damage in 10-12 sections from each brain was assessed in order to obtain an accurate estimate of damage. An average damage score was calculated for each treatment group. Scores from treated groups were compared statistically with scores from control groups which received only the vehicle (2% acacia) that was used to suspend the compounds. The level of significance was determined using Student's "t-test".

In assay [2] the test system is adjuvant-induced arthritis. The experiment in a line: Developing Adjuvant-Induced Arthritis Test in Rats. To be noted: Rattus norvegicus, po, 720 h, AUC of uninjected paw volumes, Days 16 through 30, read-out: % Inhibition of Uninjected Paw Volume Inflammation; for inhibition in vivo at 50 mg/kg: 50 mg/kg P.O. x 29. Type of assay: in vivo, male Lewis-Wistar rats.
The mark [3] stands for this setting: 100 mg/kg given orally as a suspension in 2% acacia.
Setting [4] is: 50 mg/kg given orally as a suspension in 2% acacia.

With `CSCCN1CSC(=Cc2cc(C(C)(C)C)c(O)c(C(C)(C)C)c2)C1=O` [Example 6, 5-{[3,5-bis(1,1-dimethylethyl)-4-hydroxyphenyl]methylene}-3-[2-(methylthio)ethyl]-4-thiazolidinone], in assay [1] (setting [3]), the “Damage Score” value is given as 2.5 ± 0.2.

Turning to `CC(C)(C)c1cc(C=C2CCNC2=O)cc(C(C)(C)C)c1O` [Example 69, 3-{[3,5-bis(1,1-dimethylethyl)-4-hydroxyphenyl]methylene}-2-pyrrolidinone], in assay [1] (setting [4]), the “Damage Score” value is 0.98 ± 0.42 (p=0.037).

In the case of `COCCN1CSC(=Cc2cc(C(C)(C)C)c(O)c(C(C)(C)C)c2)C1=O` [Example 7, 5-{[3,5-bis(1,1-dimethylethyl)-4-hydroxyphenyl]methylene}-3-(2-methoxyethyl)-4-thiazolidinone], the “Damage Score” value in assay [1] (setting [3]) was 2.5 ± 0.2. Further, in assay [2], the inhibition in vivo at 50 mg/kg came out at 30%.

Consider `CC(C)(C)c1cc(C=C2SC(=O)NC2=O)cc(C(C)(C)C)c1O` [Example 67, 5-{[3,5-bis(1,1-dimethylethyl)-4-hydroxyphenyl]methylene}-2,4-thiazolidinedione], for which, in assay [1] (setting [3]), the “Damage Score” value is listed as 1.4 ± 0.3 (p<0.05).

For the compound `CC(C)(C)c1cc(C=C2SCN(CC#N)C2=O)cc(C(C)(C)C)c1O` [Example 38, 5-{[3,5-bis(1,1-dimethylethyl)-4-hydroxyphenyl]methylene}-4-oxo-3-thiazolidineacetonitrile], in assay [1] (200 mg/kg given orally as a suspension in 2% acacia), the “Damage Score” value is listed as 1.6 ± 0.04. The inhibition in vivo at 50 mg/kg in assay [2] amounted to 1.8%.

For the compound `CN1CSC(Cc2cc(C(C)(C)C)c(O)c(C(C)(C)C)c2)C1=O` (stereo not drawn) [Example 11, 5-{[3,5-bis(1,1-dimethylethyl)-4-hydroxyphenyl]methyl}-3-methyl-4-thiazolidinone], in assay [1] (setting [3]), the “Damage Score” value is on record as 2.1 ± 0.3. Also, in assay [2], the inhibition in vivo at 50 mg/kg is 19.7%.

As for `CC(=O)OCCN1CSC(=Cc2cc(C(C)(C)C)c(O)c(C(C)(C)C)c2)C1=O` [Example 26, 5-{[3,5-bis(1,1-dimethylethyl)-4-hydroxyphenyl]-methylene}-3-[2-(acetyloxy)ethyl]-4-thiazolidinone], the “Damage Score” value in assay [1] (setting [3]) is 1.9 ± 0.4. The inhibition in vivo at 50 mg/kg in assay [2] worked out at 30.4%.

For `CC(C)(C)c1cc(C=C2C(=O)NC[S+]2[O-])cc(C(C)(C)C)c1O` (stereo not drawn) [Example 23, 5-{[3,5-bis(1,1-dimethylethyl)-4-hydroxyphenyl]methylene}-4-thiazolidinone, 1-oxide], the “Damage Score” value in assay [1] (setting [3]) is reported as 2.2 ± 0.4. In addition, in assay [2], the inhibition in vivo at 50 mg/kg is 28%.

Turning to `CN1CCC(=Cc2cc(C(C)(C)C)c(O)c(C(C)(C)C)c2)C1=O` [Example 70, 3-{[3,5-bis(1,1-dimethylethyl)-4-hydroxyphenyl]-methylene}-1-methyl-2-pyrrolidinone], the “Damage Score” value in assay [1] (setting [3]) is 0.7 ± 0.4 (p=0.039).

Regarding `CNCCN1CSC(=Cc2cc(C(C)(C)C)c(O)c(C(C)(C)C)c2)C1=O` [Example 28, 5-{[3,5-bis(1,1-dimethylethyl)-4-hydroxyphenyl]methylene}-3-[2-(methylamino)ethyl]-4-thiazolidinone], the “Damage Score” value in assay [1] (setting [4]) is on record as 1.0 ± 0.4 (p=0.009). In addition, the inhibition in vivo at 50 mg/kg in assay [2] was 72%.

With `CC(C)(C)c1cc(C=C2SCN(CC(N)=O)C2=O)cc(C(C)(C)C)c1O` [Example 5, 5-{[3,5-bis(1,1-dimethylethyl)-4-hydroxyphenyl]methylene}-4-oxo-3-thiazolidineacetamide], in assay [1] (setting [3]), the “Damage Score” value is reported as 1.8 ± 0.4 (p=0.05). Moreover, the inhibition in vivo at 50 mg/kg in assay [2] worked out at 7%.

As to `Cc1cc(C=C2SCN(C)C2=O)cc(C(C)(C)C)c1O` [Example 61, 5-{[3-(1,1-dimethylethyl)-4-hydroxy-5-methylphenyl]methylene}-3-methyl-4-thiazolidinone], the “Damage Score” value in assay [1] (setting [4]) is on record as 1.7 ± 0.3 (p=0.03). Also, the inhibition in vivo at 50 mg/kg in assay [2] amounted to 5.3%.

Take `CN(C)N1C[S+]([O-])C(=Cc2cc(C(C)(C)C)c(O)c(C(C)(C)C)c2)C1=O` (stereo not drawn) [Example 22, 5-{[3,5-bis(1,1-dimethylethyl)-4-hydroxyphenyl]methylene}-3-(dimethylamino)-4-thiazolidinone, 1-oxide]: in assay [1] (setting [3]), the “Damage Score” value is reported as 2.3 ± 0.3. Moreover, the inhibition in vivo at 50 mg/kg in assay [2] was 1%.

`Cc1cc(C=C2SCN(N(C)C)C2=O)cc(C(C)(C)C)c1O` [Example 62, 5-{[3-(1,1-dimethylethyl)-4-hydroxy-5-methylphenyl]methylene}-3-dimethylamino-4-thiazolidinone]: the “Damage Score” value in assay [1] (setting [3]) is 1.2 ± 0.3 (p<0.05). Further, the inhibition in vivo at 50 mg/kg in assay [2] worked out at 11.2%.

Turning to `CCCNCCN1CSC(=Cc2cc(C(C)(C)C)c(O)c(C(C)(C)C)c2)C1=O` [Example 54, 5-{[3,5-bis(1,1-dimethylethyl)-4-hydroxyphenyl]methylene}-3-[2-(propylamino)ethyl]-4-thiazolidinone], the inhibition in vivo at 50 mg/kg in assay [2] worked out at 37.6%.

With `CN1CS(=O)(=O)C(=Cc2cc(C(C)(C)C)c(O)c(C(C)(C)C)c2)C1=O` [Example 13, 5-{[3,5-bis(1,1-dimethylethyl)-4-hydroxyphenyl]methylene}-3-methyl-4-thiazolidinone, 1,1-dioxide], the “Damage Score” value in assay [1] (setting [3]) was determined as 2.1 ± 0.3. For the same compound, the inhibition in vivo at 50 mg/kg in assay [2] is 8.7%.

On to `CC(C)(C)c1cc(C=C2SCN(NCCO)C2=O)cc(C(C)(C)C)c1O` [Example 55, 5-{[3,5-bis(1,1-dimethylethyl)-4-hydroxyphenyl]methylene}-3-[(2-hydroxyethyl)amino]-4-thiazolidinone], for which the inhibition in vivo at 50 mg/kg in assay [2] worked out at 96.2%.

Turning to `CCCc1cc(C=C2SCNC2=O)cc(CCC)c1O` [Example 57, 5-[(4-hydroxy-3,5-dipropylphenyl)methylene]-4-thiazolidinone], in assay [2], the inhibition in vivo at 50 mg/kg came to 44.1%.

Consider `Cc1cc(C=C2SC(=S)N(N(C)C)C2=O)cc(C(C)(C)C)c1O` [Example 60, 5-{[3-(1,1-dimethylethyl)-4-hydroxy-5-methylphenyl]methylene}-3-dimethylamino-2-thioxo-4-thiazolidinone], for which the inhibition in vivo at 50 mg/kg in assay [2] came out at 40.6%.

`COc1ccc(CN2CSC(=Cc3cc(C(C)(C)C)c(O)c(C(C)(C)C)c3)C2=O)cc1` [Example 36, 5-{[3,5-bis(1,1-dimethylethyl)-4-hydroxyphenyl]methylene}-3-[(4-methoxyphenyl)methyl]-4-thiazolidinone]: the “Damage Score” value in assay [1] (setting [3]) came out at 2.3 ± 0.4.

For `CN(C)CCNCCN1CSC(=Cc2cc(C(C)(C)C)c(O)c(C(C)(C)C)c2)C1=O` [Example 32, 5-{[3,5-bis(1,1-dimethylethyl)-4-hydroxyphenyl]methylene}-3-{2-[[2-(dimethylamino)ethyl]amino]-ethyl}-4-thiazolidinone], in assay [2], the inhibition in vivo at 50 mg/kg came to 48.6%.

Turning to `CN1C[S+]([O-])C(=Cc2cc(C(C)(C)C)c(O)c(C(C)(C)C)c2)C1=O` (stereo not drawn) [Example 12, 5-{[3,5-bis(1,1-dimethylethyl)-4-hydroxyphenyl]methylene}-3-methyl-4-thiazolidinone, 1-oxide], in assay [1] (setting [3]), the “Damage Score” value came out at 1.8 ± 0.4. For the same compound, in assay [2], the inhibition in vivo at 50 mg/kg was 4.8%.

In the case of `CN1CCN(N2CSC(=Cc3cc(C(C)(C)C)c(O)c(C(C)(C)C)c3)C2=O)CC1` [Example 43, 5-{[3,5-bis(1,1-dimethylethyl)-4-hydroxyphenyl]methylene}-3-(4-methyl-1-piperazinyl)-4-thiazolidinone], in assay [2], the inhibition in vivo at 50 mg/kg turned out to be 36%.

With `CCCNN1CSC(=Cc2cc(C(C)(C)C)c(O)c(C(C)(C)C)c2)C1=O` [Example 51, 5-{[3,5-bis(1,1-dimethylethyl)-4-hydroxyphenyl]methylene}-3-(propylamino)-4-thiazolidinone], in assay [2] (25 mg/kg P.O. x 29), the inhibition in vivo at 25 mg/kg worked out at 39%.
